Values of other authors, collected in patent US20120088773A1, “Circadian rhythm modulation” (priority 2010, published 2012).

Columns and labels:
[1] = system: D2 dopamine-mediated rotational behavior; settings: prior administration, dopamine-depleted rats
dopamine D(2) receptor = settings: 200 mg oral caffeine compared to oral placebo
[2] = according to the CDC

Compound: CC(=O)N[C@@H](Cc1ccc(O)cc1)C(=O)O [N-acetyl-L-tyrosine]
- water solubility: very water soluble

Compound: Cn1c(=O)c2c(ncn2C)n(C)c1=O [caffeine]
- D2 dopamine-mediated rotational behavior [1]: can sensitize D2 dopamine-mediated rotational behavior
- ventral striatal [(11)C]raclopride binding potential (dopamine D(2) receptor): trend-level increase
- decrease in midline thalamic binding potential (dopamine D(2) receptor; p<0.001): 12%

Compound: C=C1CC[C@H](O)C/C1=C/C=C1\CCC[C@]2(C)[C@@H]([C@H](C)CCCC(C)C)CC[C@@H]12 [vitamin D3, cholecalciferol]
- half-life [2]: 24 to 48 h
